Test results reported in ChEMBL document CHEMBL1201862, “PubChem BioAssay data set” (2004).
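All cell lines were grown in 96-well plates and treated with compound for 48 hours. Abbreviation: GI50, concentration required for 50% inhibition of growth.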 Calls of active or inactive are those of the source. Rule as the data show it: active = GI50 up to about 1.1 µM and inactive = higher.

Key:
Assay in all cases: growth of human tumour cells (NCI), 48 h
[1] = system: 786-0
[2] = system: A498
[3] = system: A549
[4] = system: ACHN
[5] = system: BT-549
[6] = system: CAKI-1
[7] = system: CCRF-CEM
[8] = system: COLO 205
[9] = system: DU-145
[10] = system: EKVX
[11] = system: HCC 2998
[12] = system: HCT-116
[13] = system: HCT-15
[14] = system: HL-60
[15] = system: HOP-62
[16] = system: HT-29
[17] = system: Hs-578T
[18] = system: IGROV-1
[19] = system: K562
[20] = system: KM12
[21] = system: LOX IMVI
[22] = system: M14
[23] = system: MCF7
[24] = system: MDA-MB-231
[25] = system: MDA-MB-435
[26] = system: MOLT-4
[27] = system: Malme-3M
[28] = system: NCI-H23
[29] = system: NCI-H460
[30] = system: NCI-H522
[31] = system: OVCAR-8
[32] = system: PC-3
[33] = system: RPMI-8226
[34] = system: SF-268
[35] = system: SF-295
[36] = system: SF-539
[37] = system: SK-MEL-28
[38] = system: SK-MEL-5
[39] = system: SK-OV-3
[40] = system: SN12C
[41] = system: SNB-75
[42] = system: SR
[43] = system: SW-620
[44] = system: T47D
[45] = system: TK-10
[46] = system: UACC-257
[47] = system: UACC-62
[48] = system: HOP-92
[49] = system: MDA-N
[50] = system: NCI-H226
[51] = system: NCI/ADR-RES
[52] = system: OVCAR-3
[53] = system: OVCAR-4
[54] = system: OVCAR-5
[55] = system: RXF 393
[56] = system: SK-MEL-2
[57] = system: U-251

## Cc1nn(C(=O)Cc2ccccc2)c2c1C(c1ccc(Cl)cc1)SC(=N)N2 (stereo not given)
[1]
  GI50: > 100 µM (inactive)
[2]
  GI50: > 100 µM (inactive)
[3]
  GI50: > 100 µM (inactive)
[4]
  GI50: > 100 µM (inactive)
[5]
  GI50: > 100 µM (inactive)
[6]
  GI50: > 100 µM (inactive)
[7]
  GI50: > 100 µM (inactive)
[8]
  GI50: > 100 µM (inactive)
[9]
  GI50: > 100 µM (inactive)
[10]
  GI50: > 100 µM (inactive)
[11]
  GI50: > 100 µM (inactive)
[12]
  GI50: > 100 µM (inactive)
[13]
  GI50: > 100 µM
[14]
  GI50: > 100 µM (inactive)
[15]
  GI50: > 100 µM (inactive)
[16]
  GI50: > 100 µM (inactive)
[17]
  GI50: > 100 µM (inactive)
[18]
  GI50: > 100 µM (inactive)
[19]
  GI50: > 100 µM (inactive)
[20]
  GI50: > 100 µM (inactive)
[21]
  GI50: > 100 µM (inactive)
[22]
  GI50: > 100 µM (inactive)
[23]
  GI50: > 100 µM (inactive)
[24]
  GI50: > 100 µM (inactive)
[25]
  GI50: > 100 µM (inactive)
[26]
  GI50: > 100 µM (inactive)
[27]
  GI50: > 100 µM (inactive)
[28]
  GI50: > 100 µM (inactive)
[29]
  GI50: > 100 µM (inactive)
[30]
  GI50: > 100 µM (inactive)
[31]
  GI50: > 100 µM (inactive)
[32]
  GI50: > 100 µM (inactive)
[33]
  GI50: > 100 µM (inactive)
[34]
  GI50: > 100 µM (inactive)
[35]
  GI50: > 100 µM (inactive)
[36]
  GI50: > 100 µM (inactive)
[37]
  GI50: > 100 µM (inactive)
[38]
  GI50: > 100 µM (inactive)
[39]
  GI50: > 100 µM (inactive)
[40]
  GI50: > 100 µM (inactive)
[41]
  GI50: 17.2 µM (inactive)
[42]
  GI50: > 100 µM (inactive)
[43]
  GI50: > 100 µM (inactive)
[44]
  GI50: > 100 µM (inactive)
[45]
  GI50: > 100 µM (inactive)
[46]
  GI50: > 100 µM (inactive)
[47]
  GI50: > 100 µM (inactive)

## O/N=C(\CC(O)(C(F)(F)F)C(F)(F)F)c1cccc(Cl)c1
[1]
  GI50: 35.5 µM (inactive)
[2]
  GI50: 34 µM (inactive)
[3]
  GI50: 35.9 µM (inactive)
[4]
  GI50: 23.8 µM (inactive)
[6]
  GI50: 21.5 µM (inactive)
[7]
  GI50: 19.8 µM (inactive)
[8]
  GI50: 35.6 µM (inactive)
[9]
  GI50: 40.6 µM (inactive)
[10]
  GI50: 22.2 µM (inactive)
[11]
  GI50: 60 µM (inactive)
[12]
  GI50: 37.4 µM (inactive)
[13]
  GI50: 32.4 µM
[14]
  GI50: 23.5 µM (inactive)
[48]
  GI50: 23.1 µM (inactive)
[16]
  GI50: 69.2 µM (inactive)
[17]
  GI50: 21.5 µM (inactive)
[18]
  GI50: 27.1 µM (inactive)
[19]
  GI50: 30.2 µM (inactive)
[20]
  GI50: 34.8 µM (inactive)
[21]
  GI50: 23 µM (inactive)
[22]
  GI50: 22.8 µM (inactive)
[23]
  GI50: 35 µM (inactive)
[24]
  GI50: 22.5 µM (inactive)
[25]
  GI50: 25.8 µM (inactive)
[49]
  GI50: 37.3 µM (inactive)
[26]
  GI50: 15.5 µM (inactive)
[27]
  GI50: 33.7 µM (inactive)
[50]
  GI50: 20.8 µM (inactive)
[28]
  GI50: 20.5 µM (inactive)
[29]
  GI50: 43.3 µM (inactive)
[30]
  GI50: 30.5 µM (inactive)
[51]
  GI50: 38 µM (inactive)
[52]
  GI50: 19.8 µM (inactive)
[53]
  GI50: 34.5 µM (inactive)
[54]
  GI50: 47.9 µM (inactive)
[31]
  GI50: 37.4 µM (inactive)
[32]
  GI50: 29.9 µM (inactive)
[33]
  GI50: 29.9 µM (inactive)
[55]
  GI50: 15.6 µM (inactive)
[35]
  GI50: 38.7 µM (inactive)
[36]
  GI50: 28.6 µM (inactive)
[37]
  GI50: 41.1 µM (inactive)
[56]
  GI50: 22.7 µM (inactive)
[38]
  GI50: 16.6 µM (inactive)
[39]
  GI50: 22.7 µM (inactive)
[41]
  GI50: 18.2 µM (inactive)
[42]
  GI50: 45.3 µM (inactive)
[43]
  GI50: 37.8 µM (inactive)
[44]
  GI50: 32.7 µM (inactive)
[45]
  GI50: 22.3 µM (inactive)
[57]
  GI50: 20.2 µM (inactive)
[46]
  GI50: 35.6 µM (inactive)
[47]
  GI50: 38.9 µM (inactive)
